Laboratory results published in the SangsterLogP compilation.

How the values were obtained:
[1] = method code SF-HPLC, from DOI: 10.1002/ps.2780220406
[2] = method code SF-AS, from DOI: 10.1016/0021-9673(91)80064-n
[3] = method code SF-HPLC, from DOI: 10.1248/cpb.43.1894
[4] = method code SF-AS, from DOI: 10.1007/bf02877675, PMID: 411721
[5] = not given; remark: listed apart in the source
[6] = not given; remark: listed apart in the source
[7] = method code SF-AS, from DOI: 10.1007/s001289900721, PMID: 9657823
[8] = method code SF, from DOI: 10.1016/0360-3016(86)90226-9, PMID: 3744928; conditions: pH 7.4
[9] = method code SF, from DOI: 10.1016/0360-3016(89)90912-7, PMID: 2703384; conditions: pH 7.4
[10] = method code SF, from DOI: 10.1002/jps.2600830714, PMID: 7965679
[11] = not given; remark: listed apart in the source
[12] = method code SF-HPLC, from DOI: 10.1016/s0021-9673(01)88640-4
[13] = not given; remark: listed apart in the source
[14] = method code SF-AS, from DOI: 10.2307/3577276, PMID: 2913608
[15] = method code SF-GLC, from DOI: 10.1016/0378-4274(82)90116-3, PMID: 7090003
[16] = method code SF-HPLC, from DOI: 10.3109/14756366.2013.845817, PMID: 24156741

## c1ccc(Cn2cncn2)cc1
[1]
  logP: 0.92

## C=CC(=O)NCCN(C)C
[2]
  logP: -0.25

## CSC(=S)c1ccccc1SC
[3]
  logP: 3.74

## N#CC(C#N)=NNc1ccccc1Cl
[4]
  logP: 2.65

## CCOc1cc[n+]([O-])cc1
other
  logP: -0.53

## CCN(CC)CCCNc1ncc(-c2ccncc2)cc1C#N
[5]
  logP: 2.56

## Cc1ccc(S(=O)(=O)Oc2c(C(=O)c3ccc(Cl)cc3Cl)c(C)nn2C)cc1
[6]
  logP: 3.9

## FC(F)(F)c1cccc(Cn2cncn2)c1
[1]
  logP: 1.74

## [O-][n+]1cccc2ccccc21
other
  logP: 0.41

## CCOc1ccc(C=O)cc1OC
[7]
  logP: 1.63

## COC(=O)Cn1cnc([N+](=O)[O-])n1
[8]
  logD: -0.38

## COP1(=S)OCc2ccccc2O1 (configuration not stated)
[6]
  logP: 2.12

## CCCOP(=S)(OCCC)SCC(=O)N1CCCCC1C (configuration not stated)
[6]
  logP: 4.04

## C=CC(=O)NCCCN(CCO)CCO
[2]
  logP: -0.6

## O=[N+]([O-])c1nccn1CC(F)(F)CO
[9]
  logD: 0.04

## CSC(=S)C(C)(C)C(C)=O
[3]
  logP: 2.8

## COCC(F)Cn1ccnc1[N+](=O)[O-] (configuration not stated)
[9]
  logD: 0.18

## Fc1ccc(Cn2cncn2)cc1
[1]
  logP: 1.1

## C=CC(=O)NCCCN(C)C
[2]
  logP: 0

## O=Cc1cccc(O)c1
[7]
  logP: 1.29

## CC(=O)OC[C@H]1O[C@@H](OC(C)=O)[C@H](NC(=O)CNC(=O)N(CCCl)N=O)[C@@H](OC(C)=O)[C@@H]1OC(C)=O
[10]
  logP: 0.61

## CO[C@H]1O[C@H](CO)[C@@H](O)[C@H](O)[C@H]1NC(=O)CNC(=O)N(CCCl)N=O
[10]
  logP: -1.04

## N#CC(C#N)=NNc1ccc([N+](=O)[O-])cc1
[4]
  logP: 2.34

## C=CC(=O)NCCCN1CCSCC1
[2]
  logP: 0.54

## NS(=O)(=O)c1cc(Cl)ccc1Cl
[11]
  logP: 1.65

## O=Cc1cc(O)cc(Br)c1
[7]
  logP: 2.5

## N#CN=[N+]([O-])c1ccnc2ccccc12
[12]
  logP: 2.07

## CSC1=CCCCC1
[3]
  logP: 3.3

## [O-][n+]1ccc(Cl)cc1
other
  logP: -0.44

## N#Cc1cc(-c2ccncc2)cnc1NCCCN1CCOCC1
[5]
  logP: 2.43

## CCOP(=S)(OCC)SCCSCC
[6]
  logP: 3.84

## Clc1ccc(Cn2cncn2)cc1
[1]
  logP: 1.84

## N#CC(C#N)=NNc1ccc(Cl)c(Cl)c1
[4]
  logP: 3.42

## O=NN(CCCl)C(=O)NCC(=O)NC1C(O)OC(CO)C(O)C1O (configuration not stated)
[10]
  logP: -1.1

## CCc1cnccn1
[13]
  logP: 0.79

## CC(C)(C)c1ccc(NS(=O)(=O)c2[nH]cnc2[N+](=O)[O-])cc1
[14]
  logP: 2.28

## COc1ccc(Cn2cncn2)cc1
[1]
  logP: 1.1

## CNC(=O)c1ccccc1
[13]
  logP: 1.05

## CC(=O)c1cc[n+]([O-])cc1
other
  logP: -0.93

## COc1cc(C=O)cc(OC)c1OC
[7]
  logP: 1.39

## c1ccoc1
[13]
  logP: 1.31

## C=CC(=O)NCCc1c[nH]cn1
[2]
  logP: -0.21

## O=[N+]([O-])c1nccn1CC(O)CN1CC1 (configuration not stated)
[8]
  logD: -0.66

## C=C(C)C(=O)OC(C)(C)C
[15]
  logP: 2.54

## CC(C)CN[C@H]1CCS(=O)(=O)c2sc(S(N)(=O)=O)cc21
[11]
  logP: -0.03

## O=[N+]([O-])c1ncn([C@H]2O[C@H](CO)[C@@H](O)[C@H]2O)n1
[8]
  logD: -1.54

## CCOC(=O)C(SP(=S)(OC)OC)c1ccccc1 (configuration not stated)
[6]
  logP: 3.32

## C=CC(=O)OCCO
[15]
  logP: -0.21

## c1cncnc1
[13]
  logP: -0.34

## CC(=O)Nc1ccccc1NS(=O)(=O)c1[nH]cnc1[N+](=O)[O-]
[14]
  logP: -0.06

## CSC(=S)C(C)(C)C(=O)c1ccccc1
[3]
  logP: 3.9

## Cc1c[nH]c2ccccc12
[13]
  logP: 2.61

## CCCOP(=O)(OCCC)Oc1ccc(SC)cc1
[6]
  logP: 3.44

## O=[N+]([O-])c1ncn(CC(O)CCl)n1 (configuration not stated)
[8]
  logD: 0.05

## C=CC(=O)NCCCN(CC)CC
[2]
  logP: 0.72

## C#CCn1cc(C(=O)NC(c2ccccc2)C(O)C(=O)NC2CCCCC2)c(=O)c2ccc(Cl)nc21 (configuration not stated)
[16]
  logP: 5.14

## S=C1CCCC1=C1SCCS1
[3]
  logP: 3.12

## COC1OC(CO)C(O)C(O)C1NC(=O)C(C)NC(=O)N(CCCl)N=O (configuration not stated)
[10]
  logP: -0.76

## N#CC(C#N)=NNc1ccc(Cl)cc1
[4]
  logP: 3.08

## N#CN=[N+]([O-])c1cc[n+]([O-])cc1
[12]
  logP: -0.41

## NS(=O)(=O)c1ccc([N+](=O)[O-])cc1
[11]
  logP: 0.58

## O=C(Cn1cnc([N+](=O)[O-])c1)NCCO
[9]
  logD: -0.46

## N#Cc1cc[n+]([O-])cc1
other
  logP: -0.91

## N#Cc1cc(-c2ccncc2)cnc1N1CCN(CCO)CC1
[5]
  logP: 2.14

## O=[N+]([O-])c1cn(CC(O)CF)cn1 (configuration not stated)
[9]
  logD: -0.44

## N#Cc1cc(-c2ccncc2)cnc1NCCN
[5]
  logP: 1.93

## C#CCn1cc(C(=O)NC(CC(=O)NC2CCCC2)c2ccccc2)c(=O)c2cc(F)c(Cl)nc21 (configuration not stated)
[16]
  logP: 5.96

## N#Cc1cc(-c2ccncc2)cnc1N1CCNCC1
[5]
  logP: 2.51

## NS(=O)(=O)c1ccccc1[N+](=O)[O-]
[11]
  logP: 0.4

## CC(=O)Nc1cccc(NS(=O)(=O)c2[nH]cnc2[N+](=O)[O-])c1
[14]
  logP: 0.2

## CN(C)c1cccc2c(S(N)(=O)=O)cccc12
[11]
  logP: 1.83

## CCOC(=O)c1ccco1
[13]
  logP: 1.57

## O=Cc1ccc(O)c(Br)c1
[7]
  logP: 1.83

## C#CCn1cc(C(=O)NC(c2ccccc2)C(O)C(=O)NC2CCCC2)c(=O)c2cc(F)c(Cl)nc21 (configuration not stated)
[16]
  logP: 5.82

## CCOCC(O)Cn1cnc([N+](=O)[O-])n1 (configuration not stated)
[8]
  logD: -0.07

## C=C(C)C(=O)OCC(C)O (configuration not stated)
[15]
  logP: 0.97

## O=C(Cn1cnc([N+](=O)[O-])n1)NCCCO
[8]
  logD: -1.24

## CC(C)C(=O)c1ccccc1
[3]
  logP: 2.59

## NS(=O)(=O)c1ccc([N+](=O)[O-])cc1[N+](=O)[O-]
[11]
  logP: 0.3

## O=[N+]([O-])c1cn(CC(F)(F)CO)cn1
[9]
  logD: -0.21

## CCN(OC(=O)c1ccccc1)C(=O)c1c(OC)ccc(Cl)c1OC
[6]
  logP: 3.73

## CC(NC(=O)N(CCCl)N=O)C(=O)NC1C(O)OC(CO)C(O)C1O (configuration not stated)
[10]
  logP: -1.02

## N#CN=[N+]([O-])c1cc[n+]([O-])c2ccccc12
[12]
  logP: 1.12

## O=[N+]([O-])c1nc[nH]c1S(=O)(=O)NC1CCCCC1
[14]
  logP: 1.38

## C=C(C)C(=O)OCCO
[15]
  logP: 0.47

## C#CCn1cc(C(=O)NC(CC(=O)Nc2ccccc2)c2ccccc2)c(=O)c2ccc(Cl)nc21 (configuration not stated)
[16]
  logP: 5.41

## C#CCn1cc(C(=O)NC(c2ccccc2)C(O)C(=O)Nc2ccccn2)c(=O)c2cc(F)c(Cl)nc21 (configuration not stated)
[16]
  logP: 5.32

## CSC(=S)C1=C(SC)CCCC1
[3]
  logP: 3.81

## COCCNC(=O)C(F)(F)Cn1ccnc1[N+](=O)[O-]
[9]
  logD: -0.15

## O=Cc1cc(Br)ccc1Br
[7]
  logP: 3.35

## C=C(C)C(=O)OCC(C)C
[15]
  logP: 2.66

## C=CC(=O)OCC(C)C
[15]
  logP: 2.22

## N#CC(C#N)=NNc1ccc(Br)cc1
[4]
  logP: 3.38

## NS(=O)(=O)c1cc(C(=O)O)cc(N2CCCC2)c1Oc1ccccc1
[11]
  logP: 3.27

## CC(C)OC(=O)COc1ccc(C=O)cc1
[7]
  logP: 1.88

## CCNS(=O)(=O)c1[nH]cnc1[N+](=O)[O-]
[14]
  logP: -0.37

## Cc1nc(N2CCNCC2)c(C#N)cc1-c1ccccc1
[5]
  logP: 3.15

## Cn1cnc([N+](=O)[O-])c1S(N)(=O)=O
[14]
  logP: -0.74

## N#CN=[N+]([O-])c1cccc2ccccc12
[12]
  logP: 3.17

## CCCCc1ccc(Cn2cncn2)cc1
[1]
  logP: 2.81

## Cc1cc[n+]([O-])cc1
other
  logP: -0.88

## C#CCn1cc(C(=O)NC(c2ccccc2)C(O)C(=O)Nc2ccccn2)c(=O)c2cccnc21 (configuration not stated)
[16]
  logP: 4.02

## N#CN=[N+]([O-])c1ccccn1
[12]
  logP: 0.53

## NC(=O)CNC(=O)N(CCCl)N=O
[10]
  logP: -0.3

## Cc1nc(N2CCNCC2)c(C#N)cc1-c1ccncc1
[5]
  logP: 2.96

## N#CN=[N+]([O-])c1ncccn1
[12]
  logP: -0.31

## C#CCn1cc(C(=O)NC(c2ccccc2)C(O)C(=O)Nc2ccccc2)c(=O)c2cccnc21 (configuration not stated)
[16]
  logP: 4.25
